The values below are quoted from earlier work in US6468963B1, “Methods and formulations for reducing toxicity associated with diabetes treatments” (BioNumerik Pharmaceuticals, Inc., priority 2000, dated 2002).

As usually defined, the LD50 is the dose expected to kill half of the subjects tested.

Series [1] concerns humans. To be noted: doses exceeding 40 g/m^2.
In series [2] the test system is dogs. To be noted: doses higher than 3750 mg/kg (accepted LD50 for common table salt).
Series [3] has as its system mice. To be noted: doses higher than 3750 mg/kg (accepted LD50 for common table salt).
The conditions of series [4]: accepted value; species not stated.

Take `O=S(=O)([O-])CCSSCCS(=O)(=O)[O-].[Na+].[Na+]` [Dimesna, disodium 2,2′-dithiobis ethane sulfonate]: the adverse effects entry in series [1], in series [2] and in series [3] was “no adverse effects” throughout.

Consider `[Cl-].[Na+]` [common table salt], for which the LD50 in series [4] was 3750 mg/kg.
